Measured values as given in patent publication EP0931836B1, “Vasopermeability enhancing peptide of human interleukin-2 and immunoconjugates thereof” (priority 1998, dated 2004).

Columns and labels:
[1] = tested on: Raji tumor-bearing nude mice; assay: In vivo vasopermeability / biodistribution study, Raji lymphoma model (Lym-1 immunoconjugates)
Description: The Raji lymphoma cell line was used to produce heterotransplants in 6-week-old female nude mice by the subcutaneous injection of a 0.2 ml inoculum consisting of 4 x 10^7 Raji cells and 4 x 10^6 human fetal fibroblast feeder cells in the left thigh. Three days prior to injection, the mice were irradiated with 400 rads using a cesium irradiator to ensure a high take rate of the implanted cells. The tumors were grown for 14-18 days until they grew to approximately 1 cm in diameter.
To test the relative effects of the immunoconjugates on the biodistribution and tumor uptake of Lym-1 or TNT-1 in tumor-bearing mice, separate groups of 4-5 mice were given intravenous injections of 30 µg of antibody alone or antibody conjugate. At 2.5 hr after injection, each group received 50 µCi of ^125I-labeled Lym-1 or TNT-1 F(ab')2 fragment as tracer.
All animals were sacrificed 72 hr later, by sodium pentobarbital overdose, for biodistribution analysis. Various organs, blood, and tumor were removed, weighed, and samples were counted in a gamma counter. For each mouse, data were expressed as tumor:organ ratio (cpm per gram tumor/cpm per gram organ) and percent injected dose/gram (%ID/g).
Each peptide and rhIL-2, as well as their respective immunoconjugates with MAb Lym-1, were assayed for their ability to induce tumor vascular permeability and enhanced antibody uptake in Raji tumor-bearing nude mice.

[2] = target: nucleohistones expressed in the nucleus of mammalian cells; assay: paraformaldehyde-acetone-treated cell assay, 125I-labeled F(ab')2
[3] = target: variant of the HLA-Dr antigen expressed on the cell surface of human B-lymphocytes and malignant lymphomas (on Raji Burkitt's lymphoma cells) (human); assay: live cell radioimmunoassay on Raji cells, 125I-labeled F(ab')2

## 3C: synthetic peptide fragment of IL-2, amino acid sequence 22-58 (SEQ ID NO: 1), permeability enhancing peptide (QMILNGINNYKNPKLTRMLTFKFYMPKKATELKHLQC) [Fragment 3C]
[1]; named peptide tested as vasoconjugate (joined to delivery vehicle, Lym-1), relative to IL-2 immunoconjugate
  vasopermeability effects of Lym-1/IL-2 chemical conjugate: approximately 100%
[1]; tumor vascular permeability and enhanced antibody uptake in Raji tumor-bearing nude mice, relative to Lym-1/IL-2, 30-40 pM of peptide per assay
  Vasopermeability (%Lym-1/IL-2): 0 %Lym-1/IL-2

## 125I-labeled F(ab')2 fragment of murine monoclonal antibody TNT-1 (IgG2a)
[2]
  immunoreactivity: > 80%

B1: 125I-labeled F(ab')2 fragment of murine monoclonal antibody Lym-1 (IgG2a) (antibody, from another filing, V domains shown)
VH: QLKESGPGLVAPSQSLSITCTISGFSLTSYGVHWVRQPPGKGLEWLVVIWSDGSTTYNSALKSRLSISKDNSKSQVFLKMNSLQTDDTAIYYCASHYGSTLAFASWGHGTLVTVSA
VL: DIQMTQSPASLSASVGETVTIICRASVNIYSYLAWYQQKQGKSPQLLVYNAKILAEGVPSRFSGSGSGTQFSLKINSLQPEDFGSYYCQHHYGTFTFGSGTKLEIK
[3]
  percent bound (immunoreactivity): 80%
